The source of these data is ChEMBL document CHEMBL1153757, “Multivariate QSAR study of 4,5-dihydroxypyrimidine carboxamides as HIV-1 integrase inhibitors” (Eur J Med Chem, 2009).

The assay concerns the target Human immunodeficiency virus type 1 integrase (Human immunodeficiency virus 1, UniProt Q7ZJM1). The assay can be described thus: Inhibition of HIV1 integrase strand transfer activity.

Sequence of Human immunodeficiency virus type 1 integrase (Q7ZJM1 whole entry): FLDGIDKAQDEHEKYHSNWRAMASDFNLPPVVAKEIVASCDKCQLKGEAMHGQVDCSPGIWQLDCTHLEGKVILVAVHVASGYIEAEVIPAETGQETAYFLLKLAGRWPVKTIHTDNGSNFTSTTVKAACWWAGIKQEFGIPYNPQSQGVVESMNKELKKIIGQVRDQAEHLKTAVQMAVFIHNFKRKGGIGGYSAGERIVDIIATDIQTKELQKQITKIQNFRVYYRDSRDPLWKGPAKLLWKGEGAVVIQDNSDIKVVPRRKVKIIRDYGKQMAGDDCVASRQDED

As to `O=C(N[C@H]1CCc2ccccc21)c1nc(-c2cccs2)nc(O)c1O`, half-maximal inhibition (IC50) required 0.617 µM.

Take `O=C(NCC1CCCCC1)c1nc(-c2cccs2)nc(O)c1O`: 0.01 µM corresponded to half-maximal inhibition (IC50).

Consider `O=C(NCn1cncn1)c1nc(-c2cccs2)nc(O)c1O`, for which half-maximal inhibition (IC50) required 50.1 µM.

Consider `O=C(NCc1ccccc1F)c1nc(-c2cccs2)nc(O)c1O`, for which the 50% inhibitory concentration (IC50) (usually the concentration needed to halve the response being measured) was 0.162 µM. This IC50 lies about 310-fold lower than the previous one.

With `O=C(NCc1csc2ccccc12)c1nc(-c2cccs2)nc(O)c1O`, the IC50 is 0.0501 µM.

Regarding `O=C(NCc1nccs1)c1nc(-c2cccs2)nc(O)c1O`, half-maximal inhibition (IC50) required 0.2 µM.

Turning to `O=C(NCc1cc2ccccc2s1)c1nc(-c2cccs2)nc(O)c1O`, the half-maximal inhibitory concentration (IC50) is 0.01 µM. This IC50 lies about 20-fold lower than the previous one.

Turning to `O=C(NCc1cncs1)c1nc(-c2cccs2)nc(O)c1O`, the midpoint of inhibition, the IC50, lay at 2.51 µM.

Regarding `O=C(Nc1ccc2ccccc2c1)c1nc(-c2cccs2)nc(O)c1O`, the IC50 is 0.0302 µM.

Molecule `O=C(NCn1ccnc1)c1nc(-c2cccs2)nc(O)c1O` gave an IC50 of 17 µM.

In turn, `COc1ccccc1CNC(=O)c1nc(-c2cccs2)nc(O)c1O` had an IC50 of 0.0912 µM.

`O=C(N[C@@H]1CCc2ccccc21)c1nc(-c2cccs2)nc(O)c1O` had an IC50 of 0.02 µM.

On to `O=C(Nc1cccc2ccccc12)c1nc(-c2cccs2)nc(O)c1O`, for which inhibition was half-maximal at 0.214 µM (IC50).

Regarding `O=C(NCc1cccs1)c1nc(-c2cccs2)nc(O)c1O`, inhibition was half-maximal at 0.1 µM (IC50). Compared with the last molecule, the IC50 is about 2.1-fold lower.
